Measurements reported in PubChem BioAssay (NCI).
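Following 48 hours of exposure in 96-well plates, responses at five concentrations were used to interpolate endpoints linearly. GI50 = concentration required for 50% inhibition of growth. The concentration for full growth arrest is given as TGI.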

What was measured:
Assay in all cases: inhibition of tumour cell growth, NCI panel, 48 h
SNB-78 CNS = test system: SNB-78 CNS
UACC-62 melanoma = test system: UACC-62 melanoma
M19-MEL melanoma = test system: M19-MEL melanoma
SR leukemia = test system: SR leukemia
CAKI-1 renal = test system: CAKI-1 renal
HCC-2998 colon = test system: HCC-2998 colon
U251 CNS = test system: U251 CNS
HOP-62 NSCLC = test system: HOP-62 NSCLC
ACHN renal = test system: ACHN renal
TK-10 renal = test system: TK-10 renal

Row | SMILES | TGI (SNB-78 CNS) [µM] | TGI (UACC-62 melanoma) [µM] | TGI (M19-MEL melanoma) [µM] | TGI (SR leukemia) [µM] | TGI (CAKI-1 renal) [µM] | TGI (HCC-2998 colon) [µM] | TGI (U251 CNS) [µM] | TGI (HOP-62 NSCLC) [µM] | TGI (ACHN renal) [µM] | TGI (TK-10 renal) [µM] | GI50 (UACC-62 melanoma) [µM] | GI50 (CAKI-1 renal) [µM] | GI50 (HOP-62 NSCLC) [µM] | GI50 (TK-10 renal) [µM] | GI50 (ACHN renal) [µM] | GI50 (SNB-78 CNS) [µM] | GI50 (SR leukemia) [µM] | GI50 (HCC-2998 colon) [µM] | GI50 (U251 CNS) [µM]
1 | CCOC(=O)C1=C(C)N(C2OC(COC(=O)c3ccccc3)C(OC(=O)c3ccccc3)C2OC(=O)c2ccccc2)C(=S)NC1c1ccccc1 (centres undefined) | > 100 | > 100 | > 100 | 73.2 | 79.4 | > 100 | > 100 | > 100 | > 100 |  |  |  |  |  |  |  |  |  | 
2 | C(=C/c1nc2ccccc2o1)/c1ccc2c(c1)OCO2 | 90.6 | > 45.5 | > 100 |  | 40 | > 70.8 | 42.1 | 45.7 |  |  |  |  |  |  |  |  |  |  | 
3 | CN/N=C(\C(=O)Nc1ccc(C)c(C)c1)C(C(=O)OC)c1nc2ccc([N+](=O)[O-])cc2[nH]c1=O (centres undefined) | > 100 | > 100 | > 100 | > 100 | > 100 | > 100 | > 100 | > 100 | > 100 | > 100 |  |  |  |  |  |  |  |  | 
4 | CCOC(C)OC1CC(n2cc(C)c(=O)[nH]c2=O)OC1CO (centres undefined) | > 100 |  | > 100 | > 100 |  | > 100 | > 100 | > 100 | > 100 | > 100 |  |  |  |  |  |  |  |  | 
5 | C=C(C)[C@@H]1CC[C@]2(CO)CC[C@]3(C)[C@H](CC[C@@H]4[C@@]5(C)CC[C@H](NCO)C(C)(C)[C@@H]5CC[C@]43C)[C@@H]12 |  | 1.63 |  |  | 1.59 |  |  | 1.74 | 1.65 | 1.78 | 0.918 | 0.882 | 0.862 | 0.965 | 0.943 |  |  |  | 
6 | CCOC(=O)C(C)N1C(=O)c2ccccc2S1(=O)=O (centres undefined) | > 100 | > 100 | > 100 |  | > 100 | > 100 | > 100 | > 100 |  |  |  |  |  |  |  | > 100 |  |  | 
7 | C=C(C)[C@@H]1CC[C@]2(C(=O)NC(C)=O)CC[C@]3(C)[C@H](CC[C@@H]4[C@@]5(C)CCCNC(C)(C)[C@@H]5CC[C@]43C)[C@@H]12 |  | 3.11 |  | 3.07 | 3.1 | 2.69 | 3.26 |  | 3.15 | 3.38 | 1.73 | 1.64 |  | 1.79 | 1.77 |  | 0.839 | 1.31 | 1.68
8 | CN1CN(C(=O)N2CN(C)C(=O)N(C)C2)CN(C)C1=O | > 100 | > 100 | > 100 |  | > 100 | > 100 |  | > 100 | > 100 |  |  |  |  |  |  |  |  |  | 
9 | NC(=O)Oc1ccccc1 |  |  |  | > 100 |  | > 100 | > 100 |  | > 100 | > 100 |  |  |  |  |  |  |  |  | 
10 | O=C(CCC1CCCCN1)Nc1ccc2c(c1)C(=O)c1ccc(NC(=O)CCN3CCCCC3)cc1C2=O (centres undefined) | > 100 |  | 5.71 | > 100 | 5.61 |  | 23.8 | 27.9 |  | 9.42 |  |  |  |  |  |  |  |  | 
11 | CCOC(=O)Cn1c(=O)c(C)cn(COCCO)c1=O |  |  |  |  | > 100 | > 100 | > 100 | > 100 | > 100 | > 100 |  |  |  |  |  |  |  |  | 
12 | COc1ccc(C2=NC(c3ccc(Cl)cc3)C(c3ccc(Cl)cc3)N2C(=O)N2CCNC(=O)C2)c(OC(C)C)c1 (centres undefined) |  | 3.4 |  | 5.89 | 3.22 | 5.57 | 3.57 | 3.38 | 3.33 | 3.39 | 1.9 | 1.8 | 1.9 | 1.93 | 1.89 |  | 2.33 | 2.3 | 1.84
13 | CC1OC(=O)C(C(C)C)NC(=O)C(C(C)C)OC(=O)C(C(C)C)NC(=O)C(C)OC(=O)C(C(C)C)NC(=O)C(C(C)C)OC(=O)C(C(C)C)NC(=O)C(C)OC(=O)C(C(C)C)NC(=O)C(C(C)C)OC(=O)C(C(C)C)NC1=O (centres undefined) | 4.46 | 5.58 | 6.28 |  | 0.00345 | 1.29 | 1.05 | 0.0144 | < 0.0001 |  | < 0.0001 |  | < 0.0001 |  |  |  |  | < 0.0001 | < 0.0001
